The text below walks through data of patent US4719207A, “CNS active substituted azetidinone compounds” (Yamanouchi Pharmaceutical Co., Ltd., priority 1984, dated 1988).

Where two headings read alike, the source gives them in different places.

The test system of one data set is mice. In words: Reversal effect against pentobarbital-induced hypothermia (Experiment 1). It is filed as in vivo. The following applies: i.v., 10 minutes after pentobarbital (55 mg/kg i.p.), rectal temperature 30 minutes after test compound, dose required to reduce pentobarbital-hypothermia by 1.5° C.; for ED (1.5 degC): Mus musculus, iv, 0.5 h, read-out: Reversal effect against pentobarbitalhypothermia ED1.5° C. How it is done: The following experiments show the action on low body temperature induced by pentobarbital (Experiment 1), and on acute toxicity for typical compounds of the present invention.
Pentobarbital-induced hypothermia
Nine male mice weighing 18 to 22 g were used for each dosage of the test compounds. Mice were given intravenously various doses of test compounds 10 minutes after pentobarbital (55 mg/kg i.p.). Rectal temperature was measured before pentobarbital dosing and immediately before and 30 minutes after the test compounds. Effects of test compounds were evaluated as ED1.5° C., the dose required to reduce by 1.5° C. pentobarbital-hypothermia of control group of mice which received only pentobarbital and saline. The results are shown in Talbe 1.
(A) Reversal effect against pentobarbitalhypothermia ED1.5° C

Another data set in a line: Acute toxicity (i.v.). The note with it: mouse, in vivo, iv. The arrangement: species or system mice. The method, then:
That is, LD50 (i.v.) of the compound of the present invention was higher than 800 mg/kg.

Take `C[C@H]1C(=O)N[C@@H]1C(=O)N[C@@H](Cc1cn(C)cn1)C(=O)N1CCC[C@H]1C(N)=O` [.tau.-Methyl-N^α --[(2S,3R)--3-methyl-4-oxo-2-azetidinyl-carbonyl]-L-histidyl-L-prolinamide]: in the data set with mice, the ED (1.5 degC) was found to be 0.02 mg/kg.

`CS[C@H]1C(=O)N[C@@H]1C(=O)N[C@@H](Cc1c[nH]cn1)C(=O)N1CCC[C@H]1C(N)=O` [N^α -[(2R,3R)-3-methylthio-4-oxo-2-azetidinylcarbonyl]-L-histidyl-L-prolinamide]: in the data set on mice, the ED (1.5 degC) turned out to be 0.08 mg/kg.

For `[N-]=[N+]=N[C@H]1C(=O)N[C@@H]1C(=O)N[C@@H](Cc1c[nH]cn1)C(=O)N1CCC[C@H]1C(N)=O` [N^α -[(2S,3R)-3-azido-4-oxo-2-azetidinylcarbonyl]-L-histidyl-L-prolinamide], the ED (1.5 degC) with mice is under 0.01 mg/kg.

For `NC(=O)[C@@H]1CCCN1C(=O)[C@H](Cc1c[nH]cn1)NC(=O)[C@H]1NC(=O)[C@@H]1Cc1ccccc1` [N^α -[(2S,3R)-3-benzyl-4-oxo-2-azetidinylcarbonyl]-L-histidyl-L-prolinamide], the ED (1.5 degC) in the data set with mice came out at 0.04 mg/kg.

As to `CC(O)[C@H]1C(=O)N[C@@H]1C(=O)N[C@@H](Cc1c[nH]cn1)C(=O)N1CCC[C@H]1C(N)=O` (stereo partly drawn) [N^α -[(2S,3S)-3-(1-hydroxyethyl)-4-oxo-2-azetidinylcarbonyl]-L-histidyl-L-prolinamide], in the data set with mice, the ED (1.5 degC) was 0.07 mg/kg.

Turning to `NC(=O)[C@@H]1CCCN1C(=O)[C@H](Cc1c[nH]cn1)NC(=O)[C@@H]1CC(=O)N1CO` [N^α -[(S)-1-hydroxymethyl-4-oxo-2-azetidinylcarbonyl]-L-histidyl-L-prolinamide], the ED (1.5 degC) in the data set with mice worked out at 0.04 mg/kg.

On to `Cn1cnc(C[C@H](NC(=O)[C@H]2NC(=O)C2(C)C)C(=O)N2CCC[C@H]2C(N)=O)c1` [N^α -[(S)-3,3-dimethyl-4-oxo-2-azetidinylcarbonyl]-.tau.-methyl-L-histidyl-L-prolinamide], for which the ED (1.5 degC) in the data set on mice came to 0.01 mg/kg.

In general, LD50 refers to the dose at which mortality reaches 50%. As to `CC1(C)C(=O)N[C@@H]1C(=O)N[C@@H](Cc1c[nH]cn1)C(=O)N1CCC[C@H]1C(N)=O` [N^α -[(S)-3,3-dimethyl-4-oxo-2-azetidinylcarbonyl]-L-histidyl-L-prolinamide], the LD50 at 24 h in the data set “Acute toxicity (i.v.)” was over 800 mg/kg.

Take `NC(=O)[C@@H]1CCCN1C(=O)[C@H](Cc1c[nH]cn1)NC(=O)[C@@H]1CCC(=O)N1` [TRH, L-pyroglutamyl-L-histidyl-L-prolinamide, reference compound]: the “Reversal effect against pentobarbitalhypothermia ED1.5° C” value in the data set on mice stood at 0.1 mg/kg. Moreover, the median lethal dose (LD50) at 24 h in “Acute toxicity (i.v.)” (male mice, observed for 24 hours, read-out: LD50 (i.v.)) turned out to be 751 mg/kg.
